Experimental data: patent US20110172163A1, “Novel Protease Inhibitors” (QUEENSLAND UNIVERSITY OF TECHNOLOGY, priority 2008, published 2011)
Entries after “also recorded” stand apart in the source; their conditions may differ. Where two headings read alike, the source gives them in different places. Bridge positions count the residues as written; N and C are the ends. Peptide text beside a SMILES is read from it.

Legend:
bovine α-chymotrypsin = target: T1, bovine α-chymotrypsin (Bos taurus, UniProt P00766); experiment: Inhibitor kinetics: α-chymotrypsin amidolytic activity; assay type: biochemical; details: substrate W-pNA (0.2 mM)
T1 construct: purchased Sigma Chemicals
Procedure: (§1) All enzymes and substrates were obtained from Sigma Chemicals if not otherwise specified. […] The release of pNa moiety was monitored as described above for 7 minutes with each point being the average of three independent triplicate reactions. IC50 was determined using the Prism 5 software suite (GraphPad software Inc.).

KLK4 = KLK4 (Homo sapiens, UniProt Q9Y5K2); experiment: Protein proteolysis: fibrinogen digestion by KLK4 (SDS-PAGE); assay type: biochemical; set-up: pro-region of PSA (KLK3), replacing the native KLK4 pro-region (only if the E. coli preparation was used) (N, cleaved yes); made in house; details: 2.5 nM KLK4, SDS-PAGE
Procedure: Fibrinogen was solubilised in assay buffer to a final concentration of 1 mg/ml and digested with KLK4 (+/−inhibitor) over a period of 90 minutes at 37° C. Typically assays consisted of 5 μM protein substrate and 2.5 nM KLK4 protein or 1 nM trypsin made up to a final volume of 8 μl with assay buffer. Proteolysis was initiated by addition of KLK4 and terminated by addition of SDS PAGE sample buffer and heat denaturation at 100° C. for 5 minutes. Hydrolysis products were resolved on 10% SDS PAGE gels and compared with incubations terminated immediately after initiation (time 0), and substrate proteins incubated in assay buffer for 90 minutes in the absence of KLK4 or 4-16 mins with trypsin.

KLK12 = KLK12 (Homo sapiens, UniProt Q9UKR0); experiment: Protein proteolysis: fibrinogen digestion by KLK12; assay type: biochemical; details: up to a concentration of 2 μM
iKLK14 = target: T2, iKLK14 (Homo sapiens, UniProt Q9P0G3); experiment: Inhibitor kinetics: KLK14 amidolytic activity; assay type: biochemical
T2 construct: made in house

[1] = Stability of SFTI variants in contact with prostate cancer cells in vitro; assay type: in vitro ADME; details: for half-life at 1 μM: RPMI 1640 with 10% fetal calf serum, read-out: t1/2 of residual inhibitory activity (converted)
Procedure: Cell monolayers of LNCaP, 22Rv1 and PC3 cells were established in RPMI 1640 medium containing 10% fetal calf serum. Each cell line was treated +/−1 μM SFTI-FCQR contained in 4.0 mL RPMI media (as above) with a vehicle control to account for inhibition by intrinsic media factors. 25 μL samples of media were taken at 0, 24, 48, 72, 96 and 120 hrs timepoints. Media samples were boiled at 97° C. for 15 min, centrifuged at 14,000 rpm for 5 min to remove cellular debris and precipitated protein. Residual SFTI-FCQR inhibitory activity in the medium was determined against recombinant KLK4 using FVQR-pNA as a peptide substrate as above using 15ng KLK4 and 30 nmol FVQR-pNA with 2.5 μL and […] of media+/−SFTI-FCQR added from each treatment.

human matriptase = target: T3, human matriptase (Homo sapiens, UniProt Q9Y5Y6); experiment: Inhibitor kinetics: matriptase amidolytic activity; assay type: biochemical; details: substrate Bz-FVR-pNA (0.2 mM)
T3 construct: purchased R&D Systems
T3 sequence (Q9Y5Y6 615-855 limits assumed): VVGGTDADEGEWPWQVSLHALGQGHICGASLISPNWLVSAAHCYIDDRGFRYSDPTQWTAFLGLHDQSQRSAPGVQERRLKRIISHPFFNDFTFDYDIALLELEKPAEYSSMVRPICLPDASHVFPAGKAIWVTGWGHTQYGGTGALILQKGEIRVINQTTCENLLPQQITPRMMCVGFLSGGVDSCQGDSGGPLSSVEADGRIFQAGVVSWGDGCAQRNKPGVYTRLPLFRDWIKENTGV
Procedure: as §1

bovine β trypsin = experiment: Trypsin stimulated calcium release in LMF stably expressing human PAR-2; assay type: cell-based; details: 1 μM SFTI-FCQR, trypsin 10 nM
Procedure: Lung murine fibroblasts (LMF) from Par-1 null mice stably expressing human PAR-2 were grown to 80% confluence as previously described, washed with PBS, detached nonenzymatically, resuspended (4×10^6 cells/ml) in extracellular medium (121 mM NaCl, 5.4 mM KCl, 0.8 mM MgCl2, 1.8 mM CaCl2, 5.5 mM glucose, 25 mM HEPES (pH 7.4)) containing 0.2% (w/v) bovine serum albumin (Sigma) and then loaded with the fluorescence indicator Fura-2 acetoxymethyl ester (1.0 μM; Invitrogen) at room temperature for 60 min. Cells were then pelleted followed by resuspension in extracellular medium (without bovine serum albumin) at a concentration of 2×10^6 cells/ml for fluorescence measurements. The ratio of fluorescence at 510 nm after excitation at 340 and 380 nm was monitored (Polarstar Optima fluorescent plate reader) during treatment with bovine β trypsin (Sigma Chemicals), PAR-2 activating peptide SLIGKV (AusPep) and iKLK4 with or without SFTI-FCQR.

[2] = tested on: LNCaP prostate cancer cells; experiment: Primary tumour growth of LNCaP cells in nude mice (luciferase imaging); assay type: in vivo; details: 3×i.v. doses of 0.2 mg/kg, when tumour specific growth rate was less than 2%/day
Procedure: Nude mice were injected with 1.5×10^6 LNCaP prostate cancer cells stably expressing an exogenous luciferase reporter gene and imaged over a period of 56 days. Tumour growth was measured by injecting mice with […] (a luminescent substrate for luciferase) and the resulting light emissions were quantified using a xenogen in vivo imaging system.

KLK4, sequence (Q9Y5K2 31-254): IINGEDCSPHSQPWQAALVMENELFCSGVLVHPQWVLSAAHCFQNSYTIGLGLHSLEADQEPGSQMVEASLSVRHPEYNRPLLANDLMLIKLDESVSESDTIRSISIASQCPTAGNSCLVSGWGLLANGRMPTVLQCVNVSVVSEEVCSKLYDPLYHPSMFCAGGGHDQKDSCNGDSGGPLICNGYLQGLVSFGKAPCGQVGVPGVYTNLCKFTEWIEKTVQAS
KLK12, sequence (Q9UKR0 18-248): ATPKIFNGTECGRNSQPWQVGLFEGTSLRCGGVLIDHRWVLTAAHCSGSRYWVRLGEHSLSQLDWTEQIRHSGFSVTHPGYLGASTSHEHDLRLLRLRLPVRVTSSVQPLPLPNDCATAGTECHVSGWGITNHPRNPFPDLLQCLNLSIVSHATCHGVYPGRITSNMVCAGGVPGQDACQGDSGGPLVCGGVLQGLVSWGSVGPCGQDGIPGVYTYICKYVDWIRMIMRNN
T2 sequence (Q9P0G3 41-267): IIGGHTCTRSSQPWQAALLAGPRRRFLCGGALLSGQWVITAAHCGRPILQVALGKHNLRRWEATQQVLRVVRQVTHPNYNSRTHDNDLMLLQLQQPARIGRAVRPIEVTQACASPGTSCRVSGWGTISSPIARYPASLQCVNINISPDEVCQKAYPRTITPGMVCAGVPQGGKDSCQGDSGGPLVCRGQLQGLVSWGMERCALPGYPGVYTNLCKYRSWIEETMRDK

## CC[C@H](C)[C@@H]1NC(=O)[C@@H]2CCCN2C(=O)[C@@H]2CCCN2C(=O)[C@H]([C@@H](C)CC)NC(=O)[C@H](CO)NC(=O)[C@H](CCCNC(=N)N)NC(=O)[C@H](CCC(N)=O)NC(=O)[C@@H]2CSSC[C@H](NC1=O)C(=O)N[C@@H](Cc1ccccc1)C(=O)N1CCC[C@H]1C(=O)N[C@@H](CC(=O)O)C(=O)NCC(=O)N[C@@H](Cc1ccccc1)C(=O)N2 [SFTI-FCQR] (cyclo(GFCQRSIPPICFPD); disulfide 3-11)
Bovine α-chymotrypsin
  IC50: did not inhibit
Bovine α-chymotrypsin; read-out: IC50
  IC50: > 10 µM
KLK4
  concentration giving complete inhibition of fibrinogen proteolysis by KLK4: 250 nM
KLK12
  inhibition of KLK12 digestion of fibrinogen: no inhibition
iKLK14
  IC50: 1.51 ± 0.0371 µM
[1]; 1:5 dilution of supernatant, after a week of contact with prostate cancer cells
  residual inhibition of recombinant KLK4 by tissue culture supernatant: complete inhibition
[1]; 22Rv1 cell monolayers, 1 μM incubated with 22RV1 cells
  half-life at 1 μM: 117 h
[1]; LNCaP cell monolayers, 1 μM incubated with LNCaP cells
  half-life at 1 μM: 119 h
[1]; PC3 cell monolayers, 1 μM incubated with PC3 cells
  half-life at 1 μM: 89 h
Human matriptase
  IC50: did not inhibit
Human matriptase; read-out: IC50
  IC50: > 10 µM
Bovine β trypsin
  effect on trypsin stimulated calcium release: permissive for calcium release; also recorded: no effect; also recorded: increased intracellular Ca^2+ ion concentration
[2]
  tumour growth rate in comparison to control: arrested tumour growth rate
